According to US20210283215A1, “BACTERIOTHERAPY AGAINST PROPRIONIBACTERIUM ACNES FOR THE TREATMENT OF ACNE” (The Regents of the University of California, priority 2018, published 2021):

tested on: C. acnes C2; assay: Inhibition of C. acnes C2 growth, 72 h culture; type: cell-based; details: C. acnes C2, 72 h culture

| Substance | concentration inhibiting growth of C. acnes [µg/mL] |
| --- | --- |
| PSMβ1: phenol soluble modulin beta peptide of S. capitis E12, SEQ ID NO: 9437, individually synthesized (MTKLAEAIANTVKAGQDHDWAKLGTSIVGIAENGIGLLGKVFGF; listed as Staphylococcus capitis) | 62 |
| PSMβ4: phenol soluble modulin beta peptide of S. capitis E12, SEQ ID NO: 9443, individually synthesized (MTKLAEAIANAVKAGQDQDWAKLGTSIVGIAENGISLLGKVFGF; listed as Staphylococcus capitis) | 125 |
| PSMβ6: phenol soluble modulin beta peptide of S. capitis E12, SEQ ID NO: 9447, individually synthesized (MEKLFDAIRNTVDAGINQDWTKLGTSIVDIVDNGVKVISKFIGA; listed as Staphylococcus capitis) | 62 |
